target: T1, Tyrosine-protein kinase Tec (Homo sapiens, UniProt P42680); assay: Binding affinity to Tec SH3 domain
T1 sequence (P42680 whole entry): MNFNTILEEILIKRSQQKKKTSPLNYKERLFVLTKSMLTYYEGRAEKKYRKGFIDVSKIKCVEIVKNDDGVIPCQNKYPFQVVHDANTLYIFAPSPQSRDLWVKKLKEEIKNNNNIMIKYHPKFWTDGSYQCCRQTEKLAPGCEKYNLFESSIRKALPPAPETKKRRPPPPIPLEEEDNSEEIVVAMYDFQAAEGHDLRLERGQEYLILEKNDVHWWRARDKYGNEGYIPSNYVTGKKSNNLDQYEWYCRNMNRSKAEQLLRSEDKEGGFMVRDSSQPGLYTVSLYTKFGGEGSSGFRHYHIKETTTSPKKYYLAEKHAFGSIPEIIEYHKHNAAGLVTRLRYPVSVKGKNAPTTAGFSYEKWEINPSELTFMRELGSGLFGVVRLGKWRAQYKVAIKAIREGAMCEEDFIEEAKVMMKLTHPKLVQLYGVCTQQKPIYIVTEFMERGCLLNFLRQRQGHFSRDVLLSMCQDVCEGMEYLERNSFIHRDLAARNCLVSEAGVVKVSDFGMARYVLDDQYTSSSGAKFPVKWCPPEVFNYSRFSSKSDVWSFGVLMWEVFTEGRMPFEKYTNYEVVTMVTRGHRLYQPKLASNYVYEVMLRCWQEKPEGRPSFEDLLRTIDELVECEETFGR

Kd	SMILES
285 µM	c1c[nH]c(CNc2ccc3ccccc3n2)c1
177 µM	Fc1cccc(CNc2ccc3ccccc3n2)c1
193 µM	c1ccc(CNc2ccc3ccccc3n2)cc1
292 µM	Oc1ccc(CNc2ccc3ccccc3n2)cc1
208 µM	Fc1ccccc1CNc1ccc2ccccc2n1
234 µM	Oc1cccc(CNc2ccc3ccccc3n2)c1

From ChEMBL document CHEMBL1147774, “Synthesis of N-benzylated-2-aminoquinolines as ligands for the Tec SH3 domain” (Bioorg Med Chem Lett, 2006)
